Laboratory results from patent US20260325500A1, “METHODS AND COMPOSITIONS FOR TREATING ACUTE STRESS DISORDER” (BioXcel Therapeutics, Inc., priority 2022, published 2026).
Where a name gives a salt, the structure may show the parent alone.

Columns and labels:
[1] = test system: rat forced swim test model (depressive-like behavior); experiment: Forced swim test in dark phase (Example 4); assay type: in vivo, Sprague Dawley rats; details: 1 mg/kg, i.m.; versus vehicle saline
Excerpt: Animal groups: Male Sprague Dawley (SD) rats (8-10 weeks old) were grouped housed 2 per cage in standard animal cages with facilities for pelleted food and drinking water in polycarbonate bottle with stainless steel sipper tubes. During the experimental period, animals were housed in a single experimental room. Rats were distributed in 7 different experimental groups with 9-12 rats per group as illustrated in Table 8. Animals were distributed to different groups based on body weight data. Each experimental group was also coded so that the experimenter became unaware of the true experimental group at the time FST trial.
Animals were housed in an environment-controlled room at 22±3° C. and relative humidity of 30 to 70 percent. During the study, 12/12 light/dark cycles were maintained. Lights of the acclimatization area were switched off at 06:00 PM. All experiments were carried out at ambient temperature under dark phase of lighting (between 06:00 PM to 06:00 AM). Adequate fresh air supply of 12-15 air changes/hour was maintained in the experimental room. The maximum and minimum temperature and relative humidity in the experimental rooms was recorded once daily. The relative humidity in the experimental room was calculated daily from dry and wet bulb temperature recordings.
Swim 1 was carried out between 18:30 to 21:30.
Swim 2 was carried out between 19:30 to 21:30. Animals were administered test compounds from 18:30 onwards in staggered manner 60 minutes before FST 2.
Forced swim test was carried out in dark phase
On Day 1, animals were subjected to forced swim test training for 15 minutes (Swim 1) and on Day 2, Swim 2 was carried out post treatment.
On day 2 animals were dosed with respective treatment 60 min prior to performing FST.
Forced swim test (Swim 2) was scored manually with no video recording.
Forced swim test (FST), was used to study the depressive-like behavior in rodents. The test was carried out in transparent cylindrical glass containers measuring 46 cm in height and 20 cm in diameter.
There were 2 swim sessions, 24 h apart. The first session, Swim 1 was the pretest/training stage (15 min) and the second session, Swim 2, was the test stage (8 min).
In swim 2, first 1-minute data was excluded from analysis and rest 7 minutes data was considered. In 7 minutes, data, it was divided 5 minutes and 2 minute.
Twenty-four hours after the start of Swim 1, the test swim (Swim 2) was carried out.
Rat was placed in the water-filled cylinder for 8 min (Swim 2).
The duration of time spent immobile, swimming, and climbing was observed by an observer blind to the treatment group.
Immobility period: A rat was judged to be immobile when it remained floating in the water without struggling and was making only those movements necessary to keep its head above water.
Statistical analysis: One Way ANOVA, Dunnet's multiple comparison test was applied with respect to vehicle saline and Tukey's multiple comparison test was applied to compare the data in between the groups using GraphPad Prism version 9 software.

[2] = test system: mouse behavior (SmartCube signature); experiment: SmartCube system behavioral classification (Example 6); assay type: in vivo, Male C57/B16 mice; details: IP
Excerpt: Dexmedetomidine and latrepirdine have anti-psychotic effects, when tested in the SmartCube® system (Psychogenics, Inc., Paramus, NJ; See also U.S. Pat. No. 7,580,798 incorporated herein by reference in its entirety). This system uses features derived from mouse behavioral data to first, classify mice on compound versus vehicle. This measure indicates how well the system can differentiate between a mouse on compound versus a mouse on vehicle. Secondly, by comparing the features to a proprietary reference database of behavioral feature sets that are linked to classes of marketed drugs known to treat neuro-psychiatric symptoms SmartCube® assigns a signature to the behavior. Thus, the system can be used as a model to identify both the activity and the psychiatric effect of a compound by comparing the effects of the compounds against drugs with known validated effects.
By comparing the responses of animals to known drugs, the test drug can be categorized according to its function; for example, hallucinogen, anxiogenic, analgesic, cognitive enhancer, psychostimulant, mood stabilizer, high dose anti-psychotic, anti-psychotic, sedative/hypnotic, anxiolytic, high dose antidepressant, antidepressant.
Once all features are extracted from the raw data through an automated pipeline, proprietary bioinformatics algorithms are used to decorrelate groups of features and find the combination of values that best separate different groups of interest. For each compound, at each dose, they system provides a probability that the drug is active and breaks down such putative activity into the different classes of interest.
SmartCube reference data used herein include anti-psychotics and anti-depressants tested at several dose ranges. “Anti-psychotic” versus “high dose anti-psychotic” as indicated in the legend, reflects the notion that anti-psychotics reference data is dose dependent. Anti-psychotics, when administered at higher doses, can engage additional receptor systems, and thus affect mouse behavior differently. The same applies for different doses of anti-depressants.
Animals: Male C57/B16 mice (N=12 per group) from Taconic Laboratories were used. Upon receipt, mice were group-housed in OPTI mouse ventilated cages with 4 mice per cage. Mice were acclimated to the colony room for at least one week prior to test and subsequently tested at approximately 8-9 weeks of age. All animals were examined, handled, and weighed prior to initiation of the study to assure adequate health and suitability and to minimize non-specific stress associated with manipulation.
All compounds tested were formulated in NP3 (vehicle solution): 5% Pharmasolve; 30% P3 (1:1:1 PEG200: PEG400: propylene glycol); 65% saline; pH is 5.1-6.
Test groups were: • Vehicle: NP3 • Dexmedetomidine at 0.005 and 0.010 mg/kg • Latrepirdine at 1 and 10 mg/kg • Dexmedetomidine and latrepirdine combinations (in mg/kg): 0.005/1.0; 0.005/10; 0.010/1.0; 0.010/10
Test compounds were injected intraperitoneally (IP) for 15 min before animals were placed in SmartCube for assessment.
Antipsychotic: SmartCube classifies the mouse behavior with test compound as similar to treatment with marketed anti-psychotics at therapeutically relevant doses.
High Dose Antipsychotic: SmartCube classifies the mouse behavior on test compound as similar to treatment with marketed anti-psychotics at doses that are considered as high therapeutically. High doses of anti-psychotics often cause sedation.
The results for the class analyses are presented as standardized bar charts with percentages that sum to 100 for each dose. The percentage indicates the probability the classifier can differentiate between the vehicle group and test group. The pattern indicates what class signature was assigned.

Compound | increase in swimming time [1] | SmartCube signature ([2]; 1 and 10 mg/kg) | SmartCube total activity ([2]; latrepirdine 1.0 mg/kg) | SmartCube total activity ([2]; latrepirdine 10 mg/kg)
Cc1ccc2c(c1)c1c(n2CCc2ccc(C)nc2)CCN(C)C1 [latrepirdine dihydrochloride hydrate] | 9.8% |  |  | 
Cc1ccc2c(c1)c1c(n2CCc2ccc(C)nc2)CCN(C)C1 [latrepirdine, 2,8-dimethyl-5-[2-(6-methylpyridin-3-yl)ethyl]-3,4-dihydro-1H-pyrido[4,3-b]indole] |  | antipsychotic signature | 20% | 80%
